The source made the active and inactive calls. The calls are words filed in the database; no cut-off is given here.
Columns and labels:
[1] = Cytotoxicity against LPS-induced mouse BV-2 cells assessed as survival rate at 10 uM measured after 24 hrs by MTT assay relative to control; format: toxicity, cell-based; conditions: LPS-induced BV-2 cells, read-out: Survival
[2] = tested on: BV-2; experiment: Antiinflammatory activity in LPS-induced mouse BV-2 cells assessed as inhibition of NO production incubated for 24 hrs by Griess reagent based analysis; format: functional, cell-based; conditions: BV-2, 24 h
[3] = tested on: BV-2; experiment: Activation of TGF-beta pathway in APP/PS1/tau mouse brain extract-induced mouse BV-2 cells assessed as increase in phosphorylated SMAD2/3 protein level by immunoblot analysis; format: cell-based; conditions: filed as activator
[4] = target: T1, Transforming growth factor beta receptor type 3 (Mus musculus) (UniProt O88393); experiment: Binding affinity to sTGFBR3 in APP/PS1/tau mouse brain extract-induced mouse BV-2 cells at 37 to 77 degreeC measured after 3 hrs by CETSA; format: cell-based
T1 sequence (whole entry): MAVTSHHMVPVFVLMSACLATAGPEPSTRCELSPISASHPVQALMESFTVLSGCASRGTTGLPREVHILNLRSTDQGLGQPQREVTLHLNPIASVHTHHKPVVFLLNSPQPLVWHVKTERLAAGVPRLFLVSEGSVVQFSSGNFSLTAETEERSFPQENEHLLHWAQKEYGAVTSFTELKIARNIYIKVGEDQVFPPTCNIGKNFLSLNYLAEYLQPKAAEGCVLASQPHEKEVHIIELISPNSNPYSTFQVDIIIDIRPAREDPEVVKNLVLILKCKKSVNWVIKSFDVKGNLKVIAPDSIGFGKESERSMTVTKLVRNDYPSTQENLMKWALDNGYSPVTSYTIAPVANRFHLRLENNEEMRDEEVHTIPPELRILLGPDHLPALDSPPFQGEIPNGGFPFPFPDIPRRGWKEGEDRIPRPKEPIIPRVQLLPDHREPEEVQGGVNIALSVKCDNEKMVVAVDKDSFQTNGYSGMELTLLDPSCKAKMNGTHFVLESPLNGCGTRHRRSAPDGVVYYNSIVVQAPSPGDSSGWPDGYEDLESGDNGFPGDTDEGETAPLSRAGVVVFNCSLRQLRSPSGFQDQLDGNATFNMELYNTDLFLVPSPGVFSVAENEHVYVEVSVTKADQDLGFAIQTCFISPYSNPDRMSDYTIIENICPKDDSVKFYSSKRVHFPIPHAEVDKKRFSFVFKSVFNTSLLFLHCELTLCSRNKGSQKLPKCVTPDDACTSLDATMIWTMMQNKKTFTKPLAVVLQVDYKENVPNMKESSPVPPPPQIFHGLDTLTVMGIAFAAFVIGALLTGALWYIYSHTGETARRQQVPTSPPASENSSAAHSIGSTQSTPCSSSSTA

[5] = Permeability of compound measured after 18 hrs by UV spectrophotometer based PAMPA; format: ADME
[6] = tested on: BV-2; experiment: Antiinflammatory activity in APP/PS1/tau triple transgenic mouse brain extract-induced mouse BV-2 cells assessed as increase in IL-4 expression by immunoblot analysis; format: functional, cell-based; conditions: dose 1.25-10 µM
[7] = tested on: BV-2; experiment: Inhibition of NF-kappaB activation in APP/PS1/tau triple transgenic mouse brain extract-induced mouse BV-2 cells assessed as reduction in IKK complex formation by immunoblot analysis; format: cell-based; conditions: dose 1.25-10 µM
[8] = Elimination half life in Sprague-Dawley rat at 50 mg/kg, po administered as single dose and measured upto 48 hrs; format: ADME, organism-based; conditions: in vivo, read-out: beta t1/2 (converted)
[9] = Tmax in Sprague-Dawley rat at 50 mg/kg, po administered as single dose and measured upto 48 hrs; format: ADME, organism-based; conditions: in vivo
[10] = tested on: BV-2; experiment: Antiinflammatory activity in APP/PS1/tau triple transgenic mouse brain extract-induced mouse BV-2 cells assessed as increase in IL-10 expression by immunoblot analysis; format: functional, cell-based; conditions: dose 1.25-10 µM
[11] = tested on: BV-2; experiment: Antiinflammatory activity in APP/PS1/tau triple transgenic mouse brain extract-induced mouse BV-2 cells assessed as increase in CD206 expression by immunoblot analysis; format: functional, cell-based; conditions: dose 1.25-10 µM
[12] = tested on: BV-2; experiment: Antiinflammatory activity in APP/PS1/tau triple transgenic mouse brain extract-induced mouse BV-2 cells assessed as reduction in IL-1beta expression by immunoblot analysis; format: functional, cell-based; conditions: dose 1.25-10 µM
[13] = AUC (0 to t) in Sprague-Dawley rat at 50 mg/kg, po administered as single dose and measured upto 48 hrs; format: ADME, organism-based; conditions: in vivo
[14] = tested on: BV-2; experiment: Antiinflammatory activity in APP/PS1/tau triple transgenic mouse brain extract-induced mouse BV-2 cells assessed as reduction in TNFalpha expression by immunoblot analysis; format: functional, cell-based; conditions: dose 1.25-10 µM
[15] = Toxicity in C57BL/6 mouse assessed as mortality at 2000 mg/kg, po measured after 3 to 24 hrs; format: organism-based; conditions: in vivo, time 3-24 hrs
[16] = MRT (0 to infinity) in Sprague-Dawley rat at 50 mg/kg, po administered as single dose and measured upto 48 hrs; format: ADME, organism-based; conditions: in vivo
[17] = tested on: BV-2; experiment: Enhancement of amyloid beta phagocytosis in APP/PS1/tau triple transgenic mouse brain extract-induced mouse BV-2 cells assessed as increase in fluorescence intensity pretreated for 1 hr followed by brain extract treatment and measured after 24 hrs by Thioflavin T staining based assay; format: functional, cell-based; conditions: dose 1.25-10 µM, time 25.0 hrs
[18] = tested on: BV-2; experiment: Inhibition of NF-kappaB activation in APP/PS1/tau triple transgenic mouse brain extract-induced mouse BV-2 cells assessed as inhibition of phosphorylated IKBalpha protein expression by immunoblot analysis; format: cell-based; conditions: dose 1.25-10 µM
[19] = tested on: BV-2; experiment: Antiinflammatory activity in APP/PS1/tau triple transgenic mouse brain extract-induced mouse BV-2 cells assessed as reduction in CD86 expression by immunoblot analysis; format: functional, cell-based; conditions: dose 1.25-10 µM
[20] = tested on: BV-2; experiment: Activation of TGF-beta pathway in APP/PS1/tau triple transgenic mouse brain extract-induced mouse BV-2 cells assessed as increase in phosphorylated SMAD2/3 protein expression by immunoblot analysis; format: cell-based; conditions: filed as activator, dose 1.25-10 µM
[21] = Cmax in Sprague-Dawley rat at 50 mg/kg, po administered as single dose and measured upto 48 hrs; format: ADME, organism-based; conditions: in vivo
[22] = tested on: BV-2; experiment: Inhibition of NF-kappaB activation in APP/PS1/tau triple transgenic mouse brain extract-induced mouse BV-2 cells assessed as inhibition of phosphorylated p65 protein expression by immunoblot analysis; format: cell-based; conditions: dose 1.25-10 µM

Structure (SMILES) | viability at 24 h, 10 µM [1] | IC50 [2] | further results
O=c1c2ccccc2oc2ccccc12 [XANTHONE] | 95.4% | 21200 nM | –
O=C(COc1ccc2c(=O)c3ccccc3oc2c1)NCc1ccccc1F | 84.6% | 1720 nM | –
CN1CCN(c2ccc(NC(=O)COc3ccc4c(=O)c5ccccc5oc4c3)nc2)CC1 | 86% | 1190 nM | –
O=C(COc1ccc2c(=O)c3ccccc3oc2c1)Nc1cccnc1 | 91.9% | 1920 nM | –
O=C(COc1ccc2c(=O)c3ccccc3oc2c1)NCc1ccccn1 | 69.1% | 2430 nM | –
O=C(COc1ccc2c(=O)c3ccccc3oc2c1)N1CCNCC1 | 101% | 2150 nM | Activity [3]: Active; Activity [4]: inactive
O=C(COc1ccc2c(=O)c3ccccc3oc2c1)NCCc1ccc(Cl)c(Cl)c1 | 41.1% | 3280 nM | –
CN1CCN(C(=O)COc2ccc3c(=O)c4ccccc4oc3c2)CC1 | 91.6% | 2250 nM | –
O=C(COc1ccc2c(=O)c3ccccc3oc2c1)NCc1ccc(Cl)cc1 | 40.4% | 1230 nM | –
CCC(NC(=O)COc1ccc2c(=O)c3ccccc3oc2c1)c1ccccn1 (stereo not given) | 98.5% | 5430 nM | –
CCn1cc(C(=O)O)c(=O)c2cc(F)c(N3CCNCC3)nc21 [ENOXACIN] | – | – | permeability [5]: 43.26%
O=C(COc1ccc2c(=O)c3ccccc3oc2c1)Nc1ccncc1 | 108% | 2790 nM | –
O=C(COc1ccc2c(=O)c3ccccc3oc2c1)NCc1cccc(F)c1 | 97.2% | > 30000 nM | –
Cc1ccc(CCNC(=O)COc2ccc3c(=O)c4ccccc4oc3c2)cc1 | 47.9% | 3420 nM | –
O=C(COc1ccc2c(=O)c3ccccc3oc2c1)NCc1ccc(Cl)c(Cl)c1 | 54.6% | 2890 nM | –
O=C(COc1ccc2c(=O)c3ccccc3oc2c1)NCc1ccccc1 | 79% | 2410 nM | –
C[C@]12CCC(=O)C=C1CC[C@@H]1[C@@H]2CC[C@]2(C)C(=O)CC[C@@H]12 [ANDROSTENEDIONE] | – | – | permeability [5]: 87.28%
O=C(COc1ccc2c(=O)c3ccccc3oc2c1)NCc1ccc(F)cc1 | 82.8% | 2020 nM | –
O=C(COc1ccc2c(=O)c3ccccc3oc2c1)N(Cc1ccccc1)Cc1ccccc1 | 99.7% | 6380 nM | –
COc1ccc(CCNC(=O)COc2ccc3c(=O)c4ccccc4oc3c2)cc1 | 54.4% | 860 nM | –
O=C(COc1ccc2c(=O)c3ccccc3oc2c1)N1CCOCC1 | 108% | 2490 nM | Activity [3]: Active; Activity ([4]; filed as antagonist): Active
O=C(COc1ccc2c(=O)c3ccccc3oc2c1)Nc1ccccn1 | 87.4% | > 30000 nM | –
O=C(COc1ccc2c(=O)c3ccccc3oc2c1)NCCc1ccccc1 | 96.4% | 2570 nM | –
O=C(COc1ccc2c(=O)c3ccccc3oc2c1)NCc1ccncc1 | 102% | 6380 nM | –
O=C(COc1ccc2c(=O)c3ccccc3oc2c1)NCC1CCOCC1 | 105% | 520 nM | Activity [6]: Dose-Dependent Effect; inhibition [7]: Dose-Dependent Effect; half-life [8]: 10.3 h; Tmax [9]: 12 h; Activity [10]: Dose-Dependent Effect; Activity [11]: Dose-Dependent Effect; Activity [12]: Dose-Dependent Effect; AUCt [13]: 4738.426 ng·h/mL; Activity [14]: Dose-Dependent Effect; permeability [5]: 79.33%; Activity [3]: Active; Activity [15]: Non-Toxic; MRT inf [16]: 14.5 h; Activity [17]: Dose-Dependent Effect; inhibition [18]: Dose-Dependent Effect; Activity [19]: Dose-Dependent Effect; Activity [20]: Dose-Dependent Effect; Activity ([4]; filed as antagonist): Active; Cmax [21]: 304 ng/mL; inhibition [22]: Dose-Dependent Effect
O=C(COc1ccc2c(=O)c3ccccc3oc2c1)NC1CCOCC1 | 80.6% | 3900 nM | –
O=C(COc1ccc2c(=O)c3ccccc3oc2c1)NCc1cccnc1 | 75.4% | 16000 nM | –
O=C(COc1ccc2c(=O)c3ccccc3oc2c1)NC[C@@H](O)c1ccccc1 | 100% | 12500 nM | –
O=C(COc1ccc2c(=O)c3ccccc3oc2c1)NCCc1ccc(Cl)cc1 | 38.5% | 1530 nM | –
